One may read the pIC50 as the negative decadic logarithm of the IC50, by convention in mol/L.

Here are results for one molecule from patent US9469642B2, “Purinone compounds as kinase inhibitors” (Pharmacyclics LLC, priority 2012, dated 2016).

The structures appear in SMILES notation. pIC50: −log10 of the molar value.

Type in all cases: biochemical
One assay has as its target LCK (Homo sapiens, UniProt P06239). Nature of the assay: Kinase panel inhibition, LCK (one of the methods of Example 76a, 76b, 76c). An outline of the steps: (§1)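 BTK (0.5 nM) and LCK (6 nM) by TR-FRET, ATP at Km, biotinylated peptide, pH 7.4, 1 h; Ki(app) converted to IC50. Alternatively, full-length His6-BTK (1 nM) by mobility shift, 16 μM ATP (Km), 1 μM FAM peptide, pH 7.5, 1 h; IC50 from 12-point 4-parameter fit. Radiometric filter-binding option also used.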

The next assay addresses EGFR (Homo sapiens, UniProt P00533). Nature of the assay: Kinase panel inhibition, EGFR (one of the methods of Example 76a, 76b, 76c). An outline of the steps: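 Kinase activity was measured by TR-FRET in 50 μL reactions in 96-well plates. Enzyme, inhibitor, ATP at its Km and a biotinylated peptide substrate were incubated for one hour at pH 7.4 in buffer containing 20 mM Tris, 50 mM NaCl, MgCl2, MnCl2, 1 mM DTT, 0.1 mM EDTA, 0.01% bovine serum albumin, 0.005% Tween-20 and 10% DMSO. Reactions were stopped with EDTA in Lance buffer. Streptavidin-APC and Eu-labeled p-Tyr100 antibody were added for one hour. The 665/615 nm emission ratio gave activity. IC50 was derived from Ki(app) fitted with BatchKi.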

For another assay, the target named is T1, BTK (Homo sapiens, UniProt Q06187).
T1 construct: purified from insect cells as a full-length construct containing a N-terminal 6×-His tag; His6 (N); host or cells: insect cells (baculovirus Sf21)
Nature of the assay: Btk in vitro inhibitory activity (kinase assay by one of Methods A, B or C). An outline of the steps: as §1

T1 sequence (Q06187 whole entry): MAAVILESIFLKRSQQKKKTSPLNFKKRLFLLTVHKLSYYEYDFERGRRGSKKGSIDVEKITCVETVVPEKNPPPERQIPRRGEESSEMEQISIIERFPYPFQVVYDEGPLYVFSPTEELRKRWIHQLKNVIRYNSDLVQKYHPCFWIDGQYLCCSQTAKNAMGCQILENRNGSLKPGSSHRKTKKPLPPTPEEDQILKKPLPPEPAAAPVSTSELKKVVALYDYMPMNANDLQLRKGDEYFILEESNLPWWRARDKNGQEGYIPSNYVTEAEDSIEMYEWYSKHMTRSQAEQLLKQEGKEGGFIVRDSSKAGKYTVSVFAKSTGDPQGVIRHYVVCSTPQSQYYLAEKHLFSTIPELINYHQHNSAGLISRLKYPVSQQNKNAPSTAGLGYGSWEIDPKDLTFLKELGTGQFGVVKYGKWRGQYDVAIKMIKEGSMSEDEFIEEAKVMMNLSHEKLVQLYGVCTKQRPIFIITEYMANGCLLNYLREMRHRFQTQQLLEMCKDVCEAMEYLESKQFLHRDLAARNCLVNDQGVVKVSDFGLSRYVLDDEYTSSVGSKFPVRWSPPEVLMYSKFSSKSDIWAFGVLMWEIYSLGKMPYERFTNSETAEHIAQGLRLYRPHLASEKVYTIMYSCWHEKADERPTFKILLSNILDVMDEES
Chain of LCK (P06239 whole entry, species assumed): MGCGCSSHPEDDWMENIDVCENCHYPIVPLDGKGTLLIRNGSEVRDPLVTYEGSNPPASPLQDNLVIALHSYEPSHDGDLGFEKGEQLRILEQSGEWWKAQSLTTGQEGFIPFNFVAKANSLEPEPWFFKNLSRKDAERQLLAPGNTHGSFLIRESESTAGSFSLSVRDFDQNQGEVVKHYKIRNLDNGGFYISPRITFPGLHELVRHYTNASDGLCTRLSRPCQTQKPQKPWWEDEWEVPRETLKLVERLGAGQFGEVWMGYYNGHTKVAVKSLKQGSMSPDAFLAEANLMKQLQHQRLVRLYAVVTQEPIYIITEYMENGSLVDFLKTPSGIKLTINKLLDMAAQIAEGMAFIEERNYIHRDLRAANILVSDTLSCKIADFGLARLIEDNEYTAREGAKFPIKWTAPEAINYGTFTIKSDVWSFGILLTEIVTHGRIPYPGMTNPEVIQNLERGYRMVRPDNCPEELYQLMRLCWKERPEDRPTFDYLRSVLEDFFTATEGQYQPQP
Chain of EGFR (P00533 25-1210, species assumed): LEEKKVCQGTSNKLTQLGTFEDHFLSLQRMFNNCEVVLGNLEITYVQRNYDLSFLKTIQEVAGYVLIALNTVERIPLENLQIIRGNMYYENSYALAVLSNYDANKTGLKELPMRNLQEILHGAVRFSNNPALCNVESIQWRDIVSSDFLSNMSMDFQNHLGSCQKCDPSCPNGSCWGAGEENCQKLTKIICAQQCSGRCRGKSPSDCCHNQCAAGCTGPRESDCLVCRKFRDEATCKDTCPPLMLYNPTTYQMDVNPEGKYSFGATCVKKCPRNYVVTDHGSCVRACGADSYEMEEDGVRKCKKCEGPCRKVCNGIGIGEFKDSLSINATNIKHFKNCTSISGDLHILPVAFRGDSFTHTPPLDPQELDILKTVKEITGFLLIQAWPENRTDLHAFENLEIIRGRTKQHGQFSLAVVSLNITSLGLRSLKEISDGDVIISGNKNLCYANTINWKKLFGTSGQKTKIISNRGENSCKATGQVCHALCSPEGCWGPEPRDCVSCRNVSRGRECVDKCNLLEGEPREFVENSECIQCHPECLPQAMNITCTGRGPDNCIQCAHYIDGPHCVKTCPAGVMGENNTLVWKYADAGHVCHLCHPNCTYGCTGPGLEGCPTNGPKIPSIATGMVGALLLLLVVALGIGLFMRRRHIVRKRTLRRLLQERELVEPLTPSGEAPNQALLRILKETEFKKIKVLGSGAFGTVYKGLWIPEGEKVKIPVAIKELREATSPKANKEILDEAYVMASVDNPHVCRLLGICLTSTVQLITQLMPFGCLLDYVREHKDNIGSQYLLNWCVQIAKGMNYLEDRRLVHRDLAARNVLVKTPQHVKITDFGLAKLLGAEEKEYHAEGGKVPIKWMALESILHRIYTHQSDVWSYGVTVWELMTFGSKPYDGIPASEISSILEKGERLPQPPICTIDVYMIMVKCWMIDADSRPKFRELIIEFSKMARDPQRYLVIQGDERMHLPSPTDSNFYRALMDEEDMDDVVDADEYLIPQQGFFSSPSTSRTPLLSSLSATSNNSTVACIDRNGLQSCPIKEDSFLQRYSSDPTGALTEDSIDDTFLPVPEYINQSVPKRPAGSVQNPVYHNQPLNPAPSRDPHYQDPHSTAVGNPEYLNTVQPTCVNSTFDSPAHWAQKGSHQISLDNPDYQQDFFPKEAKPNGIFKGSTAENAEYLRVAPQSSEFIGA

Take `CNC/C=C/C(=O)Nc1cccc(-n2c(=O)n(-c3ccc(Oc4ccccc4)cc3)c3c(N)ncnc32)c1` [Compound 329, (E)-N-(3-(6-amino-8-oxo-7-(4-phenoxyphenyl)-7H-purin-9(8H)-yl)phenyl)-4-(methylamino)but-2-enamide]: the values for the pIC50 against LCK, against EGFR and against BTK were 6.00 to 7.00, above 7.00 and above 7.00, respectively.
